The values that follow come from patent publication US12208122B2, “Methods of treating bleeding in a subject treated with an antiplatelet agent” (Cellphire, Inc., priority 2019, dated 2025).

For assay [1], the system named is whole blood. Kind of assay: T-TAS AR chip occlusion under shear, whole blood. The following applies: whole blood with 6 μM eptifibatide (whole blood alone 8 minutes); FIG. 9. Format: cell-based, human. The text has this: (§1) In the Total Thrombus-formation Analysis System (T-TAS®, FUJIMORI KOGYO CO., LTD), the sample is forced through collagen-coated microchannels using mineral oil. Changes in pressure are used to assess thrombus formation. The Occlusion Start Time is time it takes to reach 10 kPa, and the Occlusion Time=time it takes to each Δ80 kPa using an AR chip (e.g., Zacros Item No, TC0101). According to the manufacturer, an AR chip can be used for analyzing the formation of a mixed white thrombus consisting chiefly of fibrin and activated platelets. It has a flow path (300 μm wide by 50 μm high) coated with collagen and tissue factors and can be used to analyze the clotting function and platelet function. In comparison, a PL chip can be used for analyzing the formation of a platelet thrombus consisting chiefly of activated platelets. A PL chip has a flow path coated with collagen only and can be used to analyze the platelet function.
The effect of thrombosomes on shortening clotting times while in the presence of eptifibatide was also studied. The ability of thrombosomes to recover occlusion times was studied on the T-TAS® system. The T-TAS® system measures occlusion time under shear forces with collagen and thromboplastin stimulation. The whole blood profile of occlusion and AUC on the AR T-TAS® chip lengthened and decreased, respectively, with eptifibatide. […]

The next assay has as its system platelets. The conditions noted are these: cited from earlier work.
In assay [2] the test system is platelet rich plasma. Kind of assay: T-TAS AR chip (collagen and tissue factor) occlusion under shear, platelet rich plasma. The class given is cell-based, human.
For assay [3], the system named is platelets (platelet rich plasma). Put plainly: Transmission light aggregometry, collagen-induced platelet aggregation in PRP. The class given is cell-based, human. As to the method: The aggregation of platelets (in platelet rich plasma) was evaluated using transmission light aggregrometry. […] (FIG. 8).
(§2) Platelets will aggregate with collagen and arachidonic acid stimulation. […] The PL chip system on the T-TAS® was used to emulate in vitro platelet binding and aggregation due to the exposure of collagen in the vasculature under shear conditions.
(§3) Plasma samples with platelet or thrombosomes or combination of both are loaded into cuvettes and placed into the aggregometry chambers. The chambers warm the sample and provide constant stirring. The initiation of aggregation can be done by multiple types of […] agents not limited to thrombin, ADP, collagen and any agent known to stimulate platelet aggregation. The samples can also have been taken as ex-vivo, or in-vitro supplemented with inhibitors. The instrument begins the assay by first recording the light transmission previous to stimulation for 2 minutes. The stimulant of interest is then introduced by the technician and the change in light transmission is recorded over time. The increase in light transmission corresponds to increase in platelet aggregation.

Assay [4] has the same test system. Kind of assay: Transmission light aggregometry, arachidonic acid-induced platelet aggregation in PRP. Format: cell-based, human.
Description: as §2
as §3, with “The samples can also have been taken as ex-vivo, or in-vitro supplemented with inhibitors.” left out
Platelet rich plasma was taken from subject on 800 mg ibuprofen.

Another assay has as its system NOD/SCID mice. Put plainly: Tail-snip bleed model in clopidogrel-treated NOD/SCID mice. Format: in vivo, mouse. The following applies: ~3 times the clinical dose of clopidogrel for 5 days (untreated 9 minutes). As to the method:
The mouse was treated with clopidogrel for 5 days. The mouse was anesthetized, the tail end was snipped off followed by thrombosomes being immediately administered. The time from tail snip to tail stop bleeding was recorded by visual inspection.
NOD/SCID mice were treated with ˜ 3 times the clinical dose of clopidogrel for 5 days then assessed in the tail-snip bleed model. The bleed time (min) was extended to 17.8 minutes with clopidogrel treatment verses untreated at 9 minutes (data not shown).

The subject of assay [5] is whole blood. Kind of assay: T-TAS PL chip (collagen only) thrombus formation, whole blood. The class given is cell-based, human. The conditions noted are these: whole blood with 100 and 500 μM aspirin; FIG. 17.
Description: as §1, §2
Evaluation by T-TAS® Using a PL Chip
PL chips are run similarly to AR chips, but this chip is only coated with collagen alone.

The test system of assay [6] is platelets (platelet rich plasma). Put plainly: Transmission light aggregometry, ADP-induced platelet aggregation in PRP. Format: cell-based, human. The following applies: cangrelor 0.5 μM-3.5 μM, 10 μM ADP, FIG. 1.
Description: as §3

Assay [7] relates to platelet rich plasma. Kind of assay: T-TAS AR chip (collagen and tissue factor) occlusion under shear, platelet rich plasma. The class given is cell-based, human. The conditions noted are these: for area under the curve (AUC): FIG. 3; for time to occlusion: FIG. 4.
Description: as §1
The effect of cangrelor on platelet occlusion under shear was evaluated by T-TAS®.
Evaluation by T-TAS® using an AR chip. AR chips are characterized by a single channel containing collagen and tissue factor; they can be used to analyze clotting and platelet function.

Molecules are shown by their SMILES. Read-outs that look alike come from different tables or passages of the source. Where a SMILES comes first, the peptide text is derived from it. Bridges are numbered along the chain shown (N, C = ends). [ ]: non-standard residue; d: D form. hArg = N=C(N)NCCCC[C@H](N)C(=O)O; Mpa = O=C(O)CCS

For the compound `N=C(N)NCCCC[C@@H]1NC(=O)CCSSC[C@@H](C(N)=O)NC(=O)[C@@H]2CCCN2C(=O)[C@H](Cc2c[nH]c3ccccc23)NC(=O)[C@H](CC(=O)O)NC(=O)CNC1=O` [eptifibatide] ([Mpa][hArg]GDWPC-NH2; disulfide 1-7), the occlusion time in the assay on whole blood [1] was 16 min; with platelet rich plasma [2] (PRP treated with 9 μM eptifibatide (from 18.43), FIGS. 27A, 27B), “over 30 minutes”. Also, the “time for bleeding time to return to normal after drug stoppage” value with platelets (after drug stoppage) was not above 1 h. Also, in assay [3] (collagen 10 μg/mL, all eptifibatide concentrations tested, FIG. 8), the collagen-induced platelet aggregation result is listed as “completely inhibited”.

Take `CCCCS(=O)(=O)N[C@@H](Cc1ccc(OCCCCC2CCNCC2)cc1)C(=O)O` [tirofiban]: the occlusion time result in the assay on platelet rich plasma [2] (PRP treated with 100 ng/mL tirofiban (from 18.43), FIGS. 26A, 26B) is “no occlusion”.

On to `CC(C)Cc1ccc(C(C)C(=O)O)cc1` (centres unmarked) [ibuprofen], for which the “occlusion on T-TAS flow system” value was “abolished occlusion” with platelet rich plasma [2] (PRP from subject on 800 mg ibuprofen, addition of ADP, FIG. 31B) and “demonstrated occlusion” in the assay on platelet rich plasma [2] (PRP from subject on 800 mg ibuprofen, no ADP, FIG. 31B). Besides, the “aggregation in response to arachidonic acid” value in [4] (PRP from subject on 800 mg ibuprofen, FIG. 31A) was “lack of aggregation”.

For the compound `CCCSc1nc(N[C@@H]2C[C@H]2c2ccc(F)c(F)c2)c2nnn([C@@H]3C[C@H](OCCO)[C@@H](O)[C@H]3O)c2n1` [ticagrelor], the “time to return of platelet function” value in the assay on platelets (after the last dosage) was “approximately 72 hours”.

In the assay with NOD/SCID mice, `COC(=O)[C@H](c1ccccc1Cl)N1CCc2sccc2C1` [clopidogrel] returned a bleed time of 17.8 min. For the same compound, the “time to return of platelet function” value with platelets (after stopping infusion) is reported as “approximately 1 hour”.

On to `CC(=O)Oc1ccccc1C(=O)O` [aspirin, acetylsalicylic acid], for which the “platelet binding and aggregation on collagen under shear (PL chip)” value in the assay on whole blood [5] is “largely limited”. In addition, in the assay with platelet rich plasma [2] (PRP taken from a subject on 81 mg/day aspirin, FIGS. 29A, 29B), the “occlusion on T-TAS flow system” value is “failed to occlude”. The collagen-induced platelet aggregation entry in assay [3] (collagen 10 ug/mL, aspirin 100-400 μM, FIG. 16) is recorded as “partially inhibited”. For the same compound, the “arachidonic acid-induced platelet aggregation” value in assay [4] (AA 500 ug/mL, aspirin 100-400 μM, PRP, FIG. 16) was “completely inhibited”.

Regarding `CSCCNc1nc(SCCC(F)(F)F)nc2c1ncn2[C@@H]1O[C@H](COP(=O)(O)OP(=O)(O)C(Cl)(Cl)P(=O)(O)O)[C@@H](O)[C@H]1O` [cangrelor], the “ADP-induced platelet aggregation (integrated aggregation curve)” value in assay [6] is “complete inhibition”. The compound further yielded an occlusion time in the assay on platelet rich plasma [7] (PRP treated with 100 ng/mL cangrelor and ADP (from 19), FIGS. 25A, 25B) of 26 min. For the same compound, in the assay with platelet rich plasma [7] (cangrelor 1 μM combined with ADP 10 μM, PRP, FIG. 2), the “platelet adhesion and occlusion on AR chip” value is given as “essentially eliminated”. In the assay with platelet rich plasma [7] (cangrelor alone 1 μM, PRP, FIG. 2), the “platelet occlusion on AR chip” value was “did not exhibit inhibition on occlusion”. The “area under the curve (AUC)” value in the assay on platelet rich plasma [7] (cangrelor alone, PRP) was “little effect on AUC value”; in the assay on platelet rich plasma [7] (cangrelor combined with ADP stimulation, PRP), “dropped close to zero”. The time to occlusion result is “little effect on occlusion times” in the assay on platelet rich plasma [7] (cangrelor alone, PRP) and “inhibited occlusion essentially completely” in the assay with platelet rich plasma [7] (cangrelor plus ADP stimulation, PRP).
